From patent US20170009266A1, “PROCESS FOR THE ATTACHMENT OF A GALNAC MOIETY COMPRISING A (HETERO)ARYL GROUP TO A GLCNAC MOIETY, AND PRODUCT OBTAINED THEREBY” (SYNAFFIX B.V., priority 2014, published 2017)
Residue numbers refer to the chain shown, from its start.

How the values were obtained:
Assay type in all cases: biochemical, bovine
[1] = biological target: T1, Gal-T1(Y289M) (Bos taurus, UniProt P08037, I205M/L206V/P187L/V158I/Y289M); assay: Glycosyltransfer to trimmed trastuzumab with Gal-T1(Y289M) expressed in CHO; settings: trimmed trastuzumab 10 mg/mL; UDP derivative 5 mM; enzyme 0.5 mg/mL; pH 8.0, 30° C. overnight
T1 construct: host or cells: CHO K1
T1 sequence (P08037 74-402 V158I/P187L/I205M/L206V/Y289M): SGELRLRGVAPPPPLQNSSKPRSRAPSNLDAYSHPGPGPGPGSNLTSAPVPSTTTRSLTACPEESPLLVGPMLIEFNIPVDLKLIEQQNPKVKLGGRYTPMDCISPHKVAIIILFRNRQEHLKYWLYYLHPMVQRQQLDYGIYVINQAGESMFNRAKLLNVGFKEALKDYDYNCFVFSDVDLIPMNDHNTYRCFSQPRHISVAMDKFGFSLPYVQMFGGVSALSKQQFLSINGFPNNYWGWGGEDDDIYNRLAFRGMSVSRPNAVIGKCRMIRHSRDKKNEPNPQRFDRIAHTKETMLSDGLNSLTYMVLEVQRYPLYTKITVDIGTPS
Text: (§1) A set of Gal-T 1 mutants encoding residues 74-402 of bovine Gal-T 1 were transiently expressed in CHO K1 cells by Evitria (Zurich, Switzerland) which include the Gal-T1 single mutants Y289L (represented by SEQ ID NO: 26), Y289F (represented by SEQ ID NO: 27), Y289M (represented by SEQ ID NO: 28), Y289V (represented by SEQ ID NO: 29), Y289A (represented by SEQ ID NO: 30), and Y289G (represented by SEQ ID NO: 31), and the Gal-T1 double mutants Y289L,C342T (represented by SEQ ID NO: 32), and Y289M,C342T (represented by SEQ ID NO: 33). The mutants were purified using a cation exchange column (Source 15S HR16/10 column, GE Healthcare) as described above. Purified proteins were analyzed by SDS-PAGE.
(§2) Trimmed trastuzumab (10 mg/mL, […] obtained by Endo S treatment of trastuzumab, was incubated with the 4-azido-3,5-difluorobenzoyl derivative of UDP-galactosamine (23, 5 mM) and one of the Gal-T1 single mutants Y289L, Y289M, Y289A or Y289G (expressed in CHO as described above) (0.5 mg/mL) in 10 mM MnCl2 and 25 mM Tris-HCl pH 8.0 at 30° C. overnight. Mass spectral analysis of the reduced sample indicated a partial conversion of the core GlcNac(Fuc)-substituted trastuzumab heavy chain (49504 Da) into product 30 (49818 to 49825 Da, 20 to 50% of total heavy chain depending on the Gal-T1 mutant used), resulting from transfer of 23 to core GlcNAc(Fuc)-substituted trastuzumab heavy chain. […]

[2] = biological target: T2, Gal-T1(Y289L) (Bos taurus, UniProt P08037, I205M/L206V/P187L/V158I/Y289L); assay: Glycosyltransfer to trimmed trastuzumab with Gal-T1(Y289L) expressed in CHO; settings: trimmed trastuzumab 10 mg/mL; UDP derivative 5 mM; enzyme 0.5 mg/mL; pH 8.0, 30° C. overnight
T2 construct: host or cells: CHO K1
T2 sequence (P08037 74-402 V158I/P187L/I205M/L206V/Y289L): T1 sequence (P08037 74-402 V158I/P187L/I205M/L206V/Y289M) with M216L
Text: as §1, §2

[3] = biological target: T3, Gal-T1(Y289M,C342T) (Bos taurus, UniProt P08037, C342T/Y289M); assay: Glycosyltransfer to trimmed trastuzumab with Gal-T1(Y289M,C342T) expressed in CHO; settings: trimmed trastuzumab 10 mg/mL; UDP derivative 5 mM; enzyme 1.0 mg/mL; pH 8.0, 30° C. overnight
T3 construct: host or cells: CHO K1
T3 sequence (P08037 74-402 V158I/P187L/I205M/L206V/Y289M/C342T): T1 sequence (P08037 74-402 V158I/P187L/I205M/L206V/Y289M) with C269T
Experimental: A solution of 20 μg (modified) IgG was incubated for 1 hour at 37° C. with Fabricator™ (commercially available from Genovis, Lund, Sweden) (1.25 U/μL) in phosphate-buffered saline (PBS) pH 6.6 in a total volume of 10 μL. Fabricator™-digested samples were washed trice with milliQ using an Amicon Ultra-0.5, Ultracel-10 Membrane (Millipore) resulting in a final sample volume of approximately 40 μL. The Fc/2 fragment was analyzed by electrospray ionization time-of-flight (ESI-TOF) on a JEOL AccuTOF. Deconvoluted spectra were obtained using Magtran software.
as §1, with “SDS-PAGE. […]” for “SDS-PAGE.”

With `[N-]=[N+]=Nc1c(F)cc(C(=O)N[C@H]2[C@@H](OP(=O)(O)OP(=O)(O)OC[C@H]3O[C@@H](n4ccc(=O)[nH]c4=O)[C@H](O)[C@@H]3O)O[C@H](CO)[C@H](O)[C@@H]2O)cc1F` [Compound 23, 4-azido-3,5-difluorobenzoyl Derivative of UDP-GalNH2] the observed conversion [1] was “approximately 50%”, the observed conversion [2] was “approximately 30%” and the “conversion of core GlcNAc(Fuc)-substituted trastuzumab into product” value [3] was “complete conversion”.
